{"source": "patent US10100008B2", "about": "“Immunostimulating agent” (AJINOMOTO CO., INC., priority 2014, dated 2018)", "type_in_all_cases": "in vivo, BALB/c mice", "key": {"[1]": {"test_system": "anti-influenza IgG1 subclass antibody", "test": "Intranasal influenza vaccine adjuvant test: anti-influenza IgG1 subclass antibody in serum", "settings": "twice, compared to influenza vaccine single administration group", "procedure": "8-Week-old female BALB/c mice were divided into groups (N=6), and each group was primarily immunized by intranasal administration of (1) saline, (2) influenza vaccine (Influenza HA Vaccine “SEIKEN”, manufactured by Denka Seiken Co. Ltd.) (20 μl) diluted with saline (influenza vaccine single administration group) as an antigen, (3) influenza vaccine (20 μl) and N,N′-bis(octadecanoyl)-L-cystine dimethyl ester (SZ35) (0.55 μg) as an adjuvant diluted with saline, (4) influenza vaccine (20 μl) and N,N′-bis(octadecanoyl)-L-cystine dimethyl ester (SZ35) (1.64 μg) as an adjuvant diluted with saline, and (5) influenza vaccine (20 μl) and N,N′-bis(octadecanoyl)-L-cystine dimethyl ester (SZ35) (4.92 μg) as an adjuvant diluted with saline, each per mouse. Two weeks later, the secondary immunization was carried out by intranasal administration of solutions similar to those of the above-mentioned (1) to (5) again. Two weeks from the secondary immunization, the whole blood was extracted under anesthesia, and nasal cavity washing was performed. The obtained serum samples were measured for anti-influenza IgG1 subclass antibody and HI titer assay (hemagglutination inhibition test) was performed. As a nasal cavity wash, thorax of mouse was opened to expose trachea, the trachea was incised, an Atom venous catheter with clause was inserted and 1 mL of saline was injected. The liquid discharged from the nose was centrifuged at 10000 g for 3 min, and the supernatant was recovered and used as a nasal cavity wash sample. The nasal cavity wash sample was subjected to the measurement of anti-influenza IgA antibody and IgG antibody. The measurement method was as follows.\n(§1) 0.5 μg/ml influenza vaccine (Influenza HA Vaccine “SEIKEN”, manufactured by Denka Seiken Co. Ltd.) was added to a 96 well plate by 100 μl per well, and the mixture was incubated at 4° C. overnight. […] Thereafter, a reaction quenching liquid (2N sulfuric acid solution) was added (50 μl/well) to discontinue a color developing reaction, and the absorbance (OD Value=450 nm) was measured by a microplate reader."}, "[2]": {"test_system": "anti OVA-specific IgG1 subclass antibody", "test": "Adjuvant activity test: anti OVA-specific IgG1 subclass antibody in serum after subcutaneous immunization with OVA", "settings": "dorsal-subcutaneous", "procedure": "One week later, the secondary immunization was carried out by dorsal-subcutaneous administration of solutions similar to those of the above-mentioned (1) to (5) again. Two weeks from the secondary immunization, the whole blood and spleen were extracted under anesthesia, and the obtained serum sample was measured for anti OVA-specific IgG1 subclass antibody. A method for measurement of the anti OVA-specific IgG1 subclass antibody in Example 1, and the following Examples 2, 4, 7 to 10 and 13 to 16 is as follows.\nTo a 96 well plate was added 5 μg/ml OVA at 100 μl/well, and the mixture was incubated at 4° C. overnight. After incubation, the mixture was washed three times with 200 μl of PBS-T (PBS (phosphate buffered saline)+0.05% (v/v) Tween 20) per well, and blocked with 100 μl of 5% FCS (fatal calf serum)/PBS solution per well at room temperature for 1 to 2 hr. Thereafter, the mixture was washed three times with PBS-T (200 μl/well), a diluted serum sample (100 μl/well) or the same amount of 5% FCS/PBS solution as a control was added, and the mixture was incubated at 37° C. for 1 hr. Thereafter, the mixture was washed five times with PBS-T (200 μl/well), a diluted biotinylated anti-mouse IgG1 antibody (100 μl/well) was added, and the mixture was incubated at 37° C. for 45 min. Thereafter, the mixture was washed five times with PBS-T (200 μl/well), a diluted anti-biotin-HRP antibody was added (100 μl/well), and the mixture was incubated at 37° C. for another 30 min. Thereafter, the mixture was washed five times with PBS-T (200 μl/well), TMB substrate solution was added (100 μl/well), and the mixture was incubated at room temperature for 10 to 15 min. Thereafter, a reaction quenching liquid (2N sulfuric acid solution) was added (50 μl/well) to discontinue a color developing reaction, and the absorbance (OD Value=450 nm) was measured by a microplate reader.\nOne week later, the secondary immunization was carried out by dorsal-subcutaneous administration of solutions similar to those of the above-mentioned (1) to (6) again. Two weeks from the secondary immunization, the whole blood and spleen were extracted under anesthesia, and the obtained serum sample was measured for anti OVA-specific IgG1 subclass antibody.\n8-Week-old female BALB/c mice were divided into groups (N=6), and each group was primarily immunized by dorsal-subcutaneous administration of (1) ovalbumin (OVA) ([…] administration group), (2) OVA (10 μg) and, as an adjuvant, N,N′-bis(2-heptylundecanoyl)-L-cystine dimethyl ester (SZ23) ([…]), (3) OVA (10 μg) and N,N′-bis(dodecanoyl)-L-cystine dimethyl ester (SZ24) ([…]), and (4) saline (saline single administration group), each per mouse. One week later, the secondary immunization was carried out by dorsal-subcutaneous administration of solutions similar to those of the above-mentioned (1) to (4) again. Two weeks from the secondary immunization, the whole blood was extracted under anesthesia, and the obtained serum sample was measured for anti OVA-specific IgG1 subclass antibody. SZ24 is disclosed in JP-A-4-230359, which is incorporated herein by reference in its entirety.\n8-Week-old female BALB/c mice were divided into groups (N=6), and each group was primarily immunized by dorsal-subcutaneous administration of (1) ovalbumin (OVA) ([…] administration group), (2) OVA (10 μg) and, as an adjuvant, N,N′-bis(2-tetradecylhexadecanoyl)-L-cystine dimethyl ester (SZ37) (0.256 μmol) added to saline, (3) OVA (10 μg) and N,N′-bis(2-octadecyleicosanoyl)-L-cystine dimethyl ester (SZ38) (0.256 μmol) added to saline, (4) OVA (10 μg) and SZ37 (0.256 μmol) dissolved or dispersed in 5% αCD-added saline, and (5) OVA (10 μg) and SZ38 (0.256 μmol) dissolved or dispersed in 5% αCD-added saline, each per mouse. One week later, the secondary immunization was carried out by dorsal-subcutaneous administration of solutions or dispersions similar to those of the above-mentioned (1) to (5) again. […]"}, "[3]": {"test_system": "anti-influenza IgA antibody", "test": "Intranasal influenza vaccine adjuvant test: anti-influenza IgA antibody in nasal cavity wash", "settings": "4.92 μg with influenza vaccine 20 μl, twice, compared to influenza vaccine single administration group", "procedure": "(§2) 8-Week-old female BALB/c mice were divided into groups (N=6), and each group was primarily immunized by intranasal administration of (1) saline, (2) influenza vaccine (Influenza HA Vaccine “SEIKEN”, manufactured by Denka Seiken Co. Ltd.) (20 μl) diluted with saline (influenza vaccine single administration group) as an antigen, (3) influenza vaccine (20 μl) and N,N′-bis(octadecanoyl)-L-cystine dimethyl ester (SZ35) (0.55 μg) as an adjuvant diluted with saline, (4) influenza vaccine (20 μl) and N,N′-bis(octadecanoyl)-L-cystine dimethyl ester (SZ35) (1.64 μg) as an adjuvant diluted with saline, and (5) influenza vaccine (20 μl) and N,N′-bis(octadecanoyl)-L-cystine dimethyl ester (SZ35) (4.92 μg) as an adjuvant diluted with saline, each per mouse. […] The obtained serum samples were measured for anti-influenza IgG1 subclass antibody and HI titer assay (hemagglutination inhibition test) was performed. […]\nas §1"}, "[4]": {"test_system": "anti-influenza IgG antibody", "test": "Intranasal influenza vaccine adjuvant test: anti-influenza IgG antibody in nasal cavity wash", "settings": "4.92 μg with influenza vaccine 20 μl, twice, compared to influenza vaccine single administration group", "procedure": "as §2, §1"}, "[5]": {"test_system": "HA antigen (A/California/7/2009(H1N1))", "settings": "intranasal, twice, compared to influenza vaccine single administration group"}, "[6]": {"settings": "0.55 μg with influenza vaccine 20 μl"}, "[7]": {"settings": "1.64 μg with influenza vaccine 20 μl"}, "[8]": {"settings": "4.92 μg with influenza vaccine 20 μl"}}, "note": "Where two headings read alike, the source gives them in different places."}
{"smiles": "CCCCCCCCCCCCCCCCCC(=O)N[C@@H](CSSC[C@H](NC(=O)CCCCCCCCCCCCCCCCC)C(=O)OC)C(=O)OC", "note": "[SZ35, N,N′-bis(octadecanoyl)-L-cystine dimethyl ester]", "values": [{"measurement": "production of anti-influenza IgG1 subclass antibody in the serum", "setting": "[1]; [6]", "value": "significantly increased"}, {"measurement": "production of anti-influenza IgG1 subclass antibody in the serum", "setting": "[1]; [7]", "value": "significantly increased"}, {"measurement": "production of anti-influenza IgG1 subclass antibody in the serum", "setting": "[1]; [8]", "value": "significantly increased"}, {"measurement": "production of anti OVA-specific IgG1 subclass antibody", "setting": "[2]; 0.256 μmol dispersed in 5% αCD-added saline with OVA 10 μg, compared to control (OVA in 5% αCD-added saline)", "value": "significantly increased"}, {"measurement": "production of anti OVA-specific IgG1 subclass antibody", "setting": "[2]; 2.56 μmol in saline with OVA 10 μg, primary + secondary immunization, serum two weeks after, compared to OVA single administration group", "value": "significantly increased"}, {"measurement": "production of anti-influenza IgA antibody in the nasal cavity wash", "setting": "[3]", "value": "significantly increased"}, {"measurement": "production of anti-influenza IgG antibody in the nasal cavity wash", "setting": "[4]", "value": "significantly increased"}, {"measurement": "HI antibody value in the serum", "setting": "[5]; [6]", "value": "significantly increase"}, {"measurement": "HI antibody value in the serum", "setting": "[5]; [7]", "value": "significantly increase"}, {"measurement": "HI antibody value in the serum", "setting": "[5]; [8]", "value": "significantly increase"}]}
